Test results published in US9340577B2, “HLA binding motifs and peptides and their uses” (priority 1992, dated 2016).
No end group written: not given here.

Legend:
Assay in all cases: biochemical
DRB3*0101 = DRB3*0101 (Homo sapiens, UniProt P01903+P79483); assay type: binding
DR4w4 (DRB1*0401) = DR4w4 (DRB1*0401) (Homo sapiens, UniProt P01903+P01911, A100K/A169T/F76Y/I96L/K127E/L162R/M171V/N62H/P40V/Q125Y/R42H/S133A/S149N/S66Y/V115G/V209L/W38E); assay type: binding
DRB5*0101 = DRB5*0101 (Homo sapiens, UniProt P01903+Q30154); conditions: Binding affinity DRB5 *0101
DRB1*1101 = DRB1*1101 (Homo sapiens, UniProt P01903+P01911, A100R/A169T/A87E/I96F/K41T/L162R/M171V/P40S/Q125H/Q178H/Q39Y/Q99D/R42S/S66Y/T262R/V115G/W38E); conditions: Binding affinity DRB1 *1101
DRB1*1302 = DRB1*1302 (Homo sapiens, UniProt P01903+P01911, A100E/A169T/K41T/L162R/M171V/P40S/Q125H/Q178H/Q39Y/Q99D/R42S/S66N/T262R/V115G/W38E/Y61H); assay type: binding
DRB1*0802 = DRB1*0802 (Homo sapiens, UniProt P01903+P01911, A100R/A103L/A169T/F76Y/H45Y/I96F/K41T/L162R/M171V/P40S/Q125H/Q178H/Q39Y/Q99D/R218S/R42G/S66Y/V115G/W38E); assay type: binding
DR1 (DRB1*0101) = DR1 (DRB1*0101) (Homo sapiens, UniProt P01903+P01911, A100R/D57E/F55L/F60I/F76Y/I96L/L162R/M171V/P40L/Q125E/R42F/V115G/Y59C); assay type: binding
DRB4*0101 = DRB4*0101 (Homo sapiens, UniProt P01903+P13762, G164S); assay type: binding
DRB1*1501 = DRB1*1501 (Homo sapiens, UniProt P01903+P01911); assay type: binding
DRB1*0301 = DRB1*0301 (Homo sapiens, UniProt P01903+P01911, A100K/A102G/A103R/A169T/F55Y/I96L/K41T/L162R/M171V/P40S/Q125H/Q178H/Q39Y/R42S/S66N/T106N/T262R/W38E/Y61H); assay type: binding
DRB1*0901 = DRB1*0901 (Homo sapiens, UniProt P01903+P01911, A100R/A103E/D57H/D86V/F55Y/F60I/F76Y/I96F/K127E/L162R/M171V/P40D/Q125H/Q99R/R33Q/R42F/S133A/S66N/T210M/V115G/W38K/Y107V/Y59G/Y89S); assay type: binding
DRB1*0405 = DRB1*0405 (Homo sapiens, UniProt P01903+P01911, A100R/A169T/D86S/F76Y/I96L/K127E/L162R/M171V/N62H/P40V/Q125Y/R42H/S133A/S149N/S66Y/V115G/V209L/W38E); assay type: binding
DR7 (DRB1*0701) = DR7 (DRB1*0701) (Homo sapiens, UniProt P01903+P01911, A100R/A102G/A103Q/D57E/D86V/E43K/F76Y/K127E/L162R/M171V/P40G/Q125H/Q99D/R33Q/R42Y/R54Q/S133A/S66F/T210M/V115G/Y107V/Y59L/Y89S); assay type: binding

Sequence of DRB1*1101 (P01903 26-254 limits assumed, other chains not shown): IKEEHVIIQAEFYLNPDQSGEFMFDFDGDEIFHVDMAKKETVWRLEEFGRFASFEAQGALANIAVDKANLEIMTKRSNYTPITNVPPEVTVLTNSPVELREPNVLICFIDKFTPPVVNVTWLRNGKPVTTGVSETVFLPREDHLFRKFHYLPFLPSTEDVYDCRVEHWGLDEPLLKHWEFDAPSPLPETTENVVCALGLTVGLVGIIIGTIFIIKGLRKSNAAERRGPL
Sequence of DRB1*0301 (P01903 26-254 limits assumed, other chains not shown): as above
Sequence of DRB1*1302 (P01903 26-254 limits assumed, other chains not shown): as above

| Compound | IC50 (DRB3*0101) [µM] | IC50 (DR4w4 (DRB1*0401)) [µM] | IC50 (DRB5*0101) [µM] | IC50 (DRB1*1101) [µM] | IC50 (DRB1*1302) [µM] | IC50 (DRB1*0802) [µM] | IC50 (DR1 (DRB1*0101)) [µM] | IC50 (DRB4*0101) [µM] | IC50 (DRB1*1501) [µM] | IC50 (DRB1*0301) [µM] | IC50 (DRB1*0901) [µM] | IC50 (DRB1*0405) [µM] | IC50 (DR7 (DRB1*0701)) [µM] |
| --- | --- | --- | --- | --- | --- | --- | --- | --- | --- | --- | --- | --- | --- |
| STWHWTGCNKNTGIL [Peptide 1601.38] | > 20 | > 20 | 16.5 | 0.662 | 0.487 | 11.7 | > 20 | > 20 | > 20 | > 20 | > 20 | – | – |
| RNTFLDVVTIPNSVQ [Peptide 1601.39] | 12 | – | > 20 | 0.371 | – | 0.776 | 0.555 | – | 17 | 6.86 | 5.87 | 0.326 | 0.27 |
| DFLNTVKIPNTVSVS [Peptide 1601.28] | > 20 | 0.5 | > 20 | 0.277 | 0.131 | 2.09 | 0.777 | – | 2.19 | > 20 | 0.373 | 11.8 | 0.469 |
| QIQVFETLEET [Peptide 1385.01] | > 20 | > 20 | – | – | > 20 | – | > 20 | > 20 | – | > 20 | – | – | – |
| SDEISFAGIVTKLPT [Peptide 1601.45] | > 20 | 8.79 | – | 12.2 | – | 10.7 | 0.513 | – | 0.791 | 1.66 | 1.28 | 2.35 | 0.901 |
| STSDDTVSATQIVRQ [Peptide 1601.31] | > 20 | 0.558 | > 20 | > 20 | > 20 | > 20 | 18.1 | – | > 20 | 3.74 | > 20 | > 20 | 5.21 |
| CSCC[C@H](NC(=O)[C@H](CS)NC(=O)[C@H](CC(N)=O)NC(=O)[C@H](CC(=O)O)NC(=O)[C@H](CCCCN)NC(=O)[C@H](CC(N)=O)NC(=O)CN)C(=O)N[C@H](C(=O)N[C@@H](Cc1ccc(O)cc1)C(=O)N[C@H](C(=O)N[C@@H](C)C(=O)N[C@@H](Cc1c[nH]c2ccccc12)C(=O)N[C@@H](CC(=O)O)C(=O)N[C@@H](CO)C(=O)N[C@H](C(=O)O)C(C)C)C(C)C)[C@@H](C)O [Peptide 1601.09] | > 20 | 2.26 | > 20 | > 20 | > 20 | 11.5 | 2.23 | 0.041 | 0.461 | 8.83 | > 20 | – | 4.39 |
| GRVNTHVHNPLLCSS [Peptide 1601.34] | > 20 | > 20 | > 20 | > 20 | 0.865 | 2.69 | 0.873 | 5.98 | – | 9.95 | 3.35 | – | 6.02 |
| YENDSTDLRDHIDYW [Peptide 1601.01] | 8.55 | > 20 | > 20 | > 20 | > 20 | > 20 | > 20 | – | > 20 | 15.8 | > 20 | > 20 | > 20 |
| CC[C@H](C)[C@H](NC(=O)[C@@H](NC(=O)[C@@H]1CCCN1C(=O)[C@@H](NC(=O)[C@@H](NC(=O)[C@H](CC(N)=O)NC(=O)CNC(=O)[C@H](CO)NC(=O)[C@H](CS)NC(=O)[C@H](CC(C)C)NC(=O)[C@H](CCCCN)NC(=O)[C@H](CCCNC(=N)N)NC(=O)[C@H](CCCNC(=N)N)NC(=O)[C@@H](N)CCCCN)[C@@H](C)O)[C@@H](C)O)[C@@H](C)CC)C(=O)N[C@@H](Cc1c[nH]cn1)C(=O)O [Peptide 1601.16] | > 20 | 0.311 | 4.98 | > 20 | 0.0076 | 4.74 | – | > 20 | 9.33 | 5.94 | 0.061 | – | – |
